The source of these data is article PMC9187519, “In vivo visualization of fluorescence reflecting CDK4 activity in a breast cancer mouse model” (MedComm, 2022).

Assay [1] relates to CDK4. More on the design: method as in PMID 31482107. As to conditions: for CDK4; cited from earlier work. The text has this:
We next investigated whether CPP30‐Lipo/CDKACT4 could be used to monitor the inhibition by the CDK4 inhibitor palbociclib in living cells.

Assay [2] concerns CDK4 kinase activity in MCF‐7 cells. The assay can be described thus: Cell microplate fluorescence imaging with CPP30‐Lipo/CDKACT4. The format is cell-based, human. The settings on record: n = 3; for reduction of fluorescence intensity: probe 12 h. As to the method: (§1) Cells (∼8 × 10^3 cells per well) were seeded in black 96‐well plates and incubated with CPP30‐Lipo/CDKACT4 for 12 h after siRNA transfection or treatment with graded concentrations of palbociclib (HY‐50767; Medchemexpress). Then, the cells were washed three times with PBS and refilled with fresh PBS. Cell fluorescence signals were immediately detected using the IVIS Lumina II imaging system (PerkinElmer).

Assay [3] concerns the target T1, CDK4/Cyclin D (Homo sapiens, UniProt P11802).
T1 construct: Fluorescence changes of CDKACT4 biosensor incubated with MCF‐7 cell extracts; endogenous in cells; host or cells: MCF-7 breast cancer cell extracts
Description: CDKACT4 biosensor fluorescence in MCF‐7 cell extracts. The format is biochemical. As to conditions: incubation with cell extracts prepared with different concentrations of palbociclib, n = 5. As to the method:
We initially determined whether the CDKACT4 peptide biosensor that we synthesized was effective at monitoring CDK4 kinase activity in MCF‐7 breast cancer cell extracts.
FIGURE 2 Characterization and spectral stability of CPP30‐Lipo/CDKACT4. (A) Fluorescence changes of CDKACT4 biosensor incubated with MCF‐7 cell extracts (red), CDKACT4 alone (blue), and cell extracts alone (green) during 180 min (n = 5). (B) Relative fluorescence intensity of CDKACT4 biosensor incubated with MCF‐7 cell extracts was monitored over time after treatment with different concentrations of palbociclib (n = 5). (C) Relative fluorescence intensity of MCF‐7 cell extracts‐incubated CDKACT4 at 120 min post‐treated with different concentrations of palbociclib from (b) (n = 5, **p < 0.01). (D) Transmission electron microscopy (TEM) images of CPP30‐Lipo/CDKACT4. Scale bar = 200 nm. (E) Diameter distribution of CPP30‐Lipo/CDKACT4. (F, G) UV–vis absorption spectra (F) and fluorescence emission spectra (G) of water, 5‐TAMRA, CDKACT4, and CPP30‐Lipo/CDKACT4. (H, I) Changes in absorption and fluorescence spectra of CPP30‐Lipo/CDKACT4 during 96 h in water. The samples were stored at room temperature in the dark

In assay [4] the test system is MCF‐7 cells. Description: Cell cycle analysis (propidium iodide, flow cytometry). As to conditions: MCF‐7, increasing concentration of palbociclib, n = 3. Type of assay: cell-based, human. The method, then:
Cells were harvested and fixed in 70% ethanol at 4 °C overnight. Then, the samples were incubated in a solution of 10 mg/ml RNase and 1 mg/ml propidium iodide (Yeasen Biotech) at 37 °C for 30 min in the dark. The DNA content was determined using flow cytometry (Becton, Dickinson & Co.).
A general note: Flow cytometry measures light scatter and fluorescence of single cells or particles in a stream.

Assay [5] deals with CDK4 kinase activity in T‐47D cells. The assay can be described thus: Cell microplate fluorescence imaging with CPP30‐Lipo/CDKACT4 in T‐47D. The settings on record: different concentrations of palbociclib, n=3. Type of assay: cell-based, human. The method, then:
as §1

For assay [6], the system named is pRb (S795) in MCF‐7 cells. The assay can be described thus: Western blot of pRb (S795). The format is cell-based, human. As to the method:
Cells or minced tumor tissues were washed three times with ice‐cold PBS and lysed in RIPA buffer containing protease inhibitor cocktail (Roche Molecular Systems) and phosphatase inhibitor cocktail (Bimake). Tissues were further ground using a glass homogenizer on ice. Protein concentrations were determined with a BCA kit (Solarbio). Subsequent steps were performed as recently described.[36]

For assay [7], the system named is MCF‐7 tumor xenografts. The assay can be described thus: In‐vivo fluorescence imaging, MRI and tumor analysis of MCF‐7 tumor xenografts. More on the design: species or system BALB/c nude mice. As to conditions: for change of tumor/muscle (T/M) fluorescence signal ratio: 150 mg/kg daily oral gavage 7 days, pre vs post, average, n = 6. As to the method: For MCF‐7 tumor model establishment, 6–8‐week old female BALB/c nude mice purchased from Xiamen University Laboratory Animal Center were first subcutaneously implanted with 60‐day release 17β‐estradiol pellets (Innovative Research of America) in the right side of the neck. Three days later, 2 × 10^6 MCF‐7 cells were injected subcutaneously in 1:1 PBS:Matrigel (BioCoat) into the right leg of the nude mice. Tumors were measured by caliper two or three times per week.
When MCF‐7 tumors grew to a volume of 75–100 mm^3, the mice were randomly divided into two groups (n = 6) and given palbociclib (150 mg/kg diluted in […] sodium D‐lactate) or sterile water daily by oral gavage. Magnetic resonance imaging was performed before (0 days) and 7 days after treatment using a 9.4T BioSpec MicroMRI (Bruker), and fluorescence imaging was also performed using the IVIS Lumina II imaging system (PerkinElmer) at the observation time points after intravenous injection with CPP30‐Lipo/CDKACT4 (10 μl/g body weight, containing 30 μM CDKACT4). After imaging, tumor tissue was collected for IHC staining.
Tumors were fixed in 4% paraformaldehyde, embedded in paraffin, and cut into 4‐μm slices. Then, the sections were stained with rabbit monoclonal antibody to Rb (Phospho S795) (1:100 dilution, ab47474; Abcam) or Ki67 (1:500 dilution, 9449; CST). Finally, the sections were observed under an optical microscope.

T1 sequence (P11802 2-303 limits assumed): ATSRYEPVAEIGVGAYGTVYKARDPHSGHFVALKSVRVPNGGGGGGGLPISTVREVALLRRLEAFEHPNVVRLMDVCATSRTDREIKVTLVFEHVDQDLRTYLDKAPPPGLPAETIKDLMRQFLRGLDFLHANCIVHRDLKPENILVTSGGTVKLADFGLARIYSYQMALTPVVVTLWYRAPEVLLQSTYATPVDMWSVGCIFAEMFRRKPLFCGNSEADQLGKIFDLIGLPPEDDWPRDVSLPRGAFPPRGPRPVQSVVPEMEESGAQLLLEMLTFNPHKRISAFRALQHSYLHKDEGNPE
T1 sequence (P24385 whole entry partner): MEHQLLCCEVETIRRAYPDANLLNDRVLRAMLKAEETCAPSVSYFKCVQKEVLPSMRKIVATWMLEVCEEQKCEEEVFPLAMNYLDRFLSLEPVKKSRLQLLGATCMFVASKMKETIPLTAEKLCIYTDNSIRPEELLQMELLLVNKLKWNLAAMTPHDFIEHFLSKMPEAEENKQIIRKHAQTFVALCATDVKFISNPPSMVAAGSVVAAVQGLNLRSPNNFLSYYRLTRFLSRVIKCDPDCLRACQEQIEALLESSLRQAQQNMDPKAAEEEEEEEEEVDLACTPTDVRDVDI

As for `CCN1CCN(Cc2ccc(Nc3ncc(F)c(-c4cc(F)c5nc(C)n(C(C)C)c5c4)n3)nc2)CC1` [abemaciclib], the IC50 in assay [1] was […]. In addition, the “reduction of fluorescence intensity” value in assay [2] (MCF‐7, inhibitor 10 nM) is on record as 14.37%; in assay [2] (MCF‐7, inhibitor 100 nM) it was 50.13%; in assay [2] (MCF‐7, inhibitor 1000 nM) it was 81.35%.
Consider `CC(=O)c1c(C)c2cnc(Nc3ccc(N4CCNCC4)cn3)nc2n(C2CCCC2)c1=O` [palbociclib], for which the “fluorescence of the CDKACT4 peptide biosensor” value in assay [3] is “decreased in a dose‐dependent manner”. Besides, in assay [4], the “cells arrested in the G1 phase” value is recorded as “up to 86.39%”. In addition, the “fluorescence intensity of CPP30‐Lipo/CDKACT4” value in assay [5] was “decreased with the increasing dose”. In assay [6], the “pRb (S795) protein level” value is reported as “dose‐dependent decrease”. Besides, the results for the “change of tumor/muscle (T/M) fluorescence signal ratio” value in assay [7] (12 h after caudal vein injection of probe), in assay [7] (24 h after caudal vein injection of probe) and in assay [7] (48 h after caudal vein injection of probe) were “–18.86%”, “–18.69%” and “–18.49%”, respectively. The “longest diameter of the tumor by MRI” value in assay [7] (150 mg/kg daily, day 0 vs day 7, n = 6) is listed as “no significant change”. In addition, the tumor growth entry in assay [7] (after 14 days of treatment, n = 4) is “significantly inhibited”. Moreover, the “percentage of cells positive for pRb in tumors” value in assay [7] (baseline vs day 7, immunohistochemical staining pRb (S795)) is given as “clear reductions”. Further, the “tumor volume versus control group” value in assay [7] (during the 7 days of treatment, caliper) was “no significant difference”. The “ex vivo fluorescence intensity of tumors versus control group” value in assay [7] (palbociclib 7 days, 48 h post‐injection of probe, n = 3, p < 0.05) is “significantly lower”. The “Ki‐67 staining in tumors” value in assay [7] (palbociclib 7 days, immunohistochemical staining) is on record as “substantially reduced”. Besides, the “fluorescence intensity under a microscope” value in assay [2] (MCF‐7, confocal/fluorescence microscopy after incubation with probe) is listed as “significant dose‐dependent reduction”. In addition, the “reduction of fluorescence intensity” value worked out at 3.17% in assay [2] (MCF‐7, inhibitor 10 nM); 44.70% in assay [2] (MCF‐7, inhibitor 100 nM); 60.67% in assay [2] (MCF‐7, inhibitor 1000 nM).

Usually IC50 stands for the point on the concentration scale where inhibition reaches its midpoint.
